Measurements published in patent US20220127281A1, “HETEROARYL COMPOUNDS THAT INHIBIT G12C MUTANT RAS PROTEINS” (AstraZeneca AB, priority 2017, published 2022).

Key:
[1] = molecular target: T1, GDP loaded biotinylated KRas^G12C protein (Homo sapiens, UniProt P01116, G12C); experiment: KRasG12C functional assay; format: biochemical; details: HTRF FRET readout of SOS-mediated nucleotide exchange and GST-Raf RBD binding; samples incubated for 4 hrs; read-out: KRasG12C functional assay IC50 value
T1 construct: biotin (biotinylated); made in house
T1 sequence (P01116 1-188 isoform P01116-2 G12C): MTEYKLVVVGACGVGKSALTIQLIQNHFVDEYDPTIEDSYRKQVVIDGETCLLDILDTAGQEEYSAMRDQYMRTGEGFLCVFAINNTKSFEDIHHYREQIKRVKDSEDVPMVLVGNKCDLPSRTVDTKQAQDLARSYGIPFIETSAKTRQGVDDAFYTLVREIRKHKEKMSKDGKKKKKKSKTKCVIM
Method: KRasG12C Functional Assay
All enzyme and substrate solutions were prepared in assay buffer containing 20 mM HEPES (pH 7.5), 5 mM MgCl2, 150 mM NaCl, and 0.01% Tween 20. […] In a separate mix 20 nM GST-Raf Ras binding domain (GST-Raf RBD, purified in house) and 4 μg/ml anti-GST XL665 antibody (Cisbio) was prepared in assay buffer containing 50 mM Potassium Fluoride and 0.05 mg/ml BSA and equilibrated for 4 hours before adding 0.6 μM Guanosine 5′-[γ-thio]triphosphate (GTPγS, Sigma) and 0.08 μM SOS (purified in house). 5 μl of the GST-RAF RBD mix was then dispensed into each well of the assay plate. […] This is detected simultaneously via the specific binding interaction between active GTPγS KRas^G12C with GST-Raf RBD which brings the europium and XL665 into close proximity enabling an increased FRET signal to be detected on a Pherastar (BMG) plate reader equipped with the HTRF filter module. […] IC50 values were calculated from normalised dose-response response FRET data curve fitted in Genedata screener (Basel, Switzerland).

[2] = molecular target: T1, GDP loaded biotinylated KRas^G12C protein; experiment: KRasG12C mass spectrometry adducting assay; format: binding; details: test compound final concentration 10 μM, 4 μM KRasG12C, react for 4 hours
Method: KRasG12C Mass Spectrometry Adducting Assay
Enzyme solutions were prepared in assay buffer containing 20 mM HEPES (pH 7.5), 5 mM MgCl2, and 150 mM NaCl. […] The plate was sealed before reading on a Xevo G2 QTOF (Waters) and Acquity LC system (Waters). […] Blank samples were run in between each test sample.
Data was analysed in Mass Lynx software (Waters), the Total ion count (TIC) trace was used and the eluted protein peak data combined. Using the combined spectrum the data was deconvoluted using MaxEnt1 method. The peak area for apo-protein KRas^G12C (APO) and KRAS+relative cmpd mass (adduct) were measured, and a percentage adduct was calculated using the following calculation:
Percent adduct=100*(area of adduct peak/(sum of APO+adduct peaks)

| Structure (SMILES) | IC50 [1] [µM] | KRasG12C M.S. Binding Mean adduct % [2] [%] |
| --- | --- | --- |
| C=CC(=O)N1CCN2c3ncnc4cc(-c5ccc6oc(N)nc6c5)c(Cl)c(c34)OC[C@@H]2C1 [Example 21, 1-[(8aS)-5-(2-Amino-1,3-benzoxazol-5-yl)-6-chloro-8a,9,11,12-tetrahydropyrazino[2′,1′:3,4][1,4]-oxazepino[5,6,7-de]quinazolin-10(8H)-yl]prop-2-en-1-one] | 7.18 | 20 |
| C=CC(=O)N1CCN2c3ncnc4cc(-c5cccc6c5oc(=O)n6C)c(Cl)c(c34)OC[C@@H]2C1 [Example 22, 7-[(8aS)-10-Acryloyl-6-chloro-8,8a,9,10,11,12-hexahydropyrazino[2′,1′:3,4][1,4]oxazepino[5,6,7-de]quinazolin-5-yl]-3-methyl-1,3-benzoxazol-2(3H)-one] | 1.77 | 34 |
| C=CC(=O)N1CCN2c3ncnc4cc(-c5cccc(NC(C)=O)c5)c(Cl)c(c34)OC[C@@H]2C1 [Example 23, N-{3-[(8aS)-10-Acryloyl-6-chloro-8,8a,9,10,11,12-hexahydropyrazino[2′,1′:3,4][1,4]oxazepino[5,6,7-de]quinazolin-5-yl]phenyl}acetamide] | 8.84 | 20 |
| C=CC(=O)N1CCN2c3ncnc4cc(-c5c(F)cccc5OC)c(Cl)c(c34)OC[C@@H]2C1 [Example 25, 1-[(8aS)-6-Chloro-5-(2-fluoro-6-methoxyphenyl)-8a,9,11,12-tetrahydropyrazino[2′,1′:3,4][1,4]oxazepino[5,6,7-de]quinazolin-10(8H)-yl]prop-2-en-1-one] | 0.616 | 89 |
| C=CC(=O)N1CCN2c3ncnc4cc(-c5cccc(F)c5OC)c(Cl)c(c34)OC[C@@H]2C1 [Example 26, 1-[(8aS)-6-Chloro-5-(3-fluoro-2-methoxyphenyl)-8a,9,11,12-tetrahydropyrazino[2′,1′:3,4][1,4]oxazepino[5,6,7-de]quinazolin-10(8H)-yl]prop-2-en-1-one] | 2.06 | 71 |
| C=CC(=O)N1CCN2c3ncnc4cc(-c5ccccc5S(C)(=O)=O)c(Cl)c(c34)OC[C@@H]2C1 [Example 29, 1-[(8aS)-6-Chloro-5-[2-(methylsulfonyl)phenyl]-8a,9,11,12-tetrahydropyrazino[2′,1′:3,4][1,4]oxazepino[5,6,7-de]quinazolin-10(8H)-yl]prop-2-en-1-one] | 5.02 | 45 |
| C=CC(=O)N1CCN2c3ncnc4cc(-c5ccccc5C(=O)NC)c(Cl)c(c34)OC[C@@H]2C1 [Example 30, 2-[(8aS)-10-Acryloyl-6-chloro-8,8a,9,10,11,12-hexahydropyrazino[2′,1′:3,4][1,4]oxazepino[5,6,7-de]quinazolin-5-yl]-N-methylbenzamide] | 9.41 | 22 |
| C=CC(=O)N1CCN2c3ncnc4cc(-c5cccc(NC(=O)OC)c5)c(Cl)c(c34)OC[C@@H]2C1 [Example 33, Methyl {3-[(8aS)-10-Acryloyl-6-chloro-8,8a,9,10,11,12-hexahydropyrazino[2′,1′:3,4][1,4]oxazepino[5,6,7-de]quinazolin-5-yl]phenyl}carbamate] | 6.91 | 24 |

Second part, the compound after the results:

| IC50 [1] [µM] | KRasG12C M.S. Binding Mean adduct % [2] [%] | Structure (SMILES) |
| --- | --- | --- |
| 2 | 64 | C=CC(=O)N1CCN2c3ncnc4cc(-c5cccc6[nH]c(=O)[nH]c56)c(Cl)c(c34)OC[C@@H]2C1 [Example 13, 4-[(8aS)-10-Acryloyl-6-chloro-8,8a,9,10,11,12-hexahydropyrazino[2′,1′:3,4][1,4]-oxazepino[5,6,7-de]quinazolin-5-yl]-1,3-dihydro-2H-benzimidazol-2-one] |
| 2.54 | 53 | C=CC(=O)N1CCN2c3ncnc4cc(-c5c(C)cnc6[nH]ncc56)c(Cl)c(c34)OC[C@@H]2C1 [Example 14, 1-[(8aS)-6-Chloro-5-(5-methyl-1H-pyrazolo[3,4-b]pyridin-4-yl)-8a,9,11,12-tetrahydro-pyrazino[2′,1′:3,4][1,4]oxazepino[5,6,7-de]quinazolin-10 (8H)-yl]prop-2-en-1-one] |
| 4.41 | 27 | C=CC(=O)N1CCN2c3ncnc4cc(-c5cccc6c5OCCOC6)c(Cl)c(c34)OC[C@@H]2C1 [Example 24, 1-[(8aS)-6-Chloro-5-(2,3-dihydro-5H-1,4-benzodioxepin-9-yl)-8a,9,11,12-tetrahydropyrazino[2′,1′:3,4][1,4]oxazepino[5,6,7-de]quinazolin-10(8H)-yl]prop-2-en-1-one] |
| 3.03 | 73 | C=CC(=O)N1CCN2c3ncnc4cc(-c5cccc(OC)c5O)c(Cl)c(c34)OC[C@@H]2C1 [Example 27, 1-[(8aS)-6-Chloro-5-(2-hydroxy-3-methoxyphenyl)-8a,9,11,12-tetrahydropyrazino[2′,1′:3,4][1,4]oxazepino[5,6,7-de]quinazolin-10(8H)-yl]prop-2-en-1-one] |
| 9.93 | 26 | C=CC(=O)N1CCN2c3ncnc4cc(-c5cccc6c5CCCOC6)c(Cl)c(c34)OC[C@@H]2C1 [Example 28, 1-[(8aS)-6-Chloro-5-(1,3,4,5-tetrahydro-2-benzoxepin-6-yl)-8a,9,11,12-tetrahydropyrazino[2′,1′:3,4][1,4]oxazepino[5,6,7-de]quinazolin-10(8H)-yl]prop-2-en-1-one] |
| 6.97 | 14 | C=CC(=O)N1CCN2c3ncnc4cc(-c5cccc(S(N)(=O)=O)c5)c(Cl)c(c34)OC[C@@H]2C1 [Example 31, 3-[(8aS)-10-Acryloyl-6-chloro-8,8a,9,10,11,12-hexahydropyrazino[2′,1′:3,4][1,4]oxazepino[5,6,7-de]quinazolin-5-yl]benzenesulfonamide] |
| 8.32 | 33 | C=CC(=O)N1CCN2c3ncnc4cc(-c5cccc6nccnc56)c(Cl)c(c34)OC[C@@H]2C1 [Example 32, 1-[(8aS)-6-Chloro-5-(quinoxalin-5-yl)-8a,9,11,12-tetrahydropyrazino[2′,1′:3,4][1,4]oxazepino[5,6,7-de]quinazolin-10(8H)-yl]prop-2-en-1-one] |
| 3.47 | 8 | C=CC(=O)N1CCN2c3ncnc4cc(-c5cccc6c5CN(C)CC6)c(Cl)c(c34)OC[C@@H]2C1 [Example 34, 1-[(8aS)-6-Chloro-5-(2-methyl-1,2,3,4-tetrahydroisoquinolin-8-yl)-8a,9,11,12-tetrahydropyrazino[2′,1′:3,4][1,4]oxazepino[5,6,7-de]quinazolin-10(8H)-yl]prop-2-en-1-one] |
| 1.48 | 87 | C=CC(=O)N1CCN2c3ncnc4cc(-c5ccccc5OC(F)(F)F)c(Cl)c(c34)OC[C@@H]2C1 [Example 35, 1-[(8aS)-6-Chloro-5-[2-(trifluoromethoxy)phenyl]-8a,9,11,12-tetrahydropyrazino[2′,1′:3,4][1,4]oxazepino[5,6,7-de]quinazolin-10(8H)-yl]prop-2-en-1-one] |
| 6.38 | 21 | C=CC(=O)N1CCN2c3ncnc4cc(-c5cccc(N=S(C)(C)=O)c5)c(Cl)c(c34)OC[C@@H]2C1 [Example 36, 1-[(8aS)-6-Chloro-5-(3-{[dimethyl(oxido)-lambda~6~- sulfanylidene]amino}phenyl)-8a,9,11,12-tetrahydropyrazino[2′,1′:3,4][1,4]oxazepino[5,6,7-de]quinazolin-10(8H)-yl]prop-2-en-1-one] |
